Reference: PubChem BioAssay (NCI)
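How tested: cells in 96-well plates exposed to compound for 48 hours at five concentrations. Abbreviation: GI50, concentration required for 50% inhibition of growth. The concentration for full growth arrest is given as TGI.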

What was measured:
Assay in all cases: NCI-60 cell line screen, 48 h
[1] = test system: SK-MEL-28 melanoma
[2] = test system: MALME-3M melanoma
[3] = test system: NCI-H460 lung
[4] = test system: HL-60(TB) leukemia
[5] = test system: SK-OV-3 ovarian
[6] = test system: HT29 colon
[7] = test system: SN12C renal
[8] = test system: HOP-92 NSCLC
[9] = test system: COLO 205 colon
[10] = test system: SF-539 CNS

Row | Compound | TGI [1] | TGI [2] | TGI [3] | TGI [4] | TGI [5] | TGI [6] | TGI [7] | TGI [8] | TGI [9] | TGI [10] | GI50 [1] | GI50 [2] | GI50 [3] | GI50 [4] | GI50 [5] | GI50 [6] | GI50 [7] | GI50 [8] | GI50 [9] | GI50 [10]
1 | O=C1C=C(C2OC(CO)C(O)C2O)C(=O)N1 (stereo not given) | > 100 µM | > 100 µM | > 100 µM | > 100 µM | > 100 µM | > 100 µM | > 100 µM | > 100 µM | > 100 µM | > 100 µM |  |  |  |  |  |  |  |  |  | 
2 | CCCC(C)c1ccc(OCCCCCCN2CCNCC2)cc1 (stereo not given) | 3.65 µM | 3.75 µM | 3.39 µM | 3.54 µM | 7.12 µM | 3.74 µM | 9.66 µM | 6.7 µM | 3.42 µM | 3.46 µM | 1.84 µM | 1.93 µM | 1.65 µM | 1.75 µM | 2.57 µM | 1.66 µM | 2.84 µM | 1.54 µM | 1.65 µM | 1.71 µM
3 | N#C[S-].[La+3].c1cnc2c(c1)ccc1cccnc12.c1cnc2c(c1)ccc1cccnc12.c1cnc2c(c1)ccc1cccnc12 | 33.9 µM | 7.06 µM |  | 2.47 µM | 14.1 µM | 18 µM | 16 µM | 18 µM | 16.1 µM | 14.1 µM |  |  |  |  |  |  |  |  |  | 
4 | OC(CC1CCCCN1)c1ccc2c(c1)oc1ccccc12 (stereo not given) | > 100 µM | > 100 µM | > 100 µM | > 100 µM | > 100 µM | > 100 µM | > 100 µM | > 100 µM | 45.2 µM | > 100 µM |  |  |  |  |  |  |  |  |  | 
5 | CC1(C)[C@@H]2CC[C@]1(C)[C@H](OC(=O)CSC#N)C2 | > 100 µM | > 100 µM | > 100 µM |  | > 100 µM | > 100 µM | > 100 µM | > 100 µM | > 100 µM | 67.9 µM |  |  |  |  |  |  |  |  |  | 
6 | COc1cc2c(cc1O)c(O)cc1c3cc(OC)c(OC)cc3c[n+](C)c21 | > 100 µM | > 100 µM | > 100 µM |  | > 100 µM | > 61.4 µM |  |  | > 100 µM | > 100 µM |  |  |  |  |  |  |  |  |  | 
7 | Cc1ccc2c(ccc(/C=C/c3ccc(O)c4ncccc34)[n+]2C)c1 | 33.1 µM | 31.4 µM | 30.3 µM | > 100 µM | 34.3 µM | 27.7 µM | 35.6 µM | 31.1 µM | 39.9 µM | 23.1 µM |  |  |  |  |  |  |  |  |  | 
8 | O=C(c1ccccc1)c1ccc2n[se]nc2c1 | > 100 µM | > 100 µM |  | 25.9 µM | > 100 µM | > 100 µM | > 100 µM |  | 84.1 µM | 43 µM |  |  |  |  |  |  |  |  |  | 
9 | CN(C)/C=C/C(=CC=[N+](C)C)/C=C/N(C)C | > 100 µM | > 100 µM | > 100 µM | > 100 µM | > 100 µM | > 100 µM | > 100 µM | > 100 µM |  | > 100 µM |  |  |  |  |  |  |  |  |  | 
10 | CCC1C[N+]23CCc4c([nH]c5ccccc45)C2CC1CC3 (stereo not given) | > 100 µM | 97.4 µM | > 100 µM |  | > 100 µM | > 100 µM | > 100 µM | > 100 µM | > 100 µM |  |  |  |  |  |  |  |  |  |  | 
11 | CN(C)CCNC(=O)c1cccc2c(=O)c3ccccc3oc12 | > 100 µM | 64.3 µM | > 79.5 µM | > 90.6 µM | > 100 µM | 98.7 µM | > 78.7 µM | 60.1 µM | 19.4 µM | > 100 µM |  |  |  |  |  |  |  |  |  | 
12 | CCOP(=Nc1ccc(N(C)C)cc1)(OCC)OCC | > 100 µM | > 100 µM | > 100 µM |  | > 100 µM |  |  | > 100 µM | > 100 µM |  |  |  |  |  |  |  |  |  |  | 
13 | OC(CNc1ccccn1)c1ccccc1 (stereo not given) | > 100 µM | > 100 µM | > 100 µM | > 100 µM | > 100 µM | > 100 µM | > 100 µM | > 100 µM | > 100 µM | > 100 µM |  |  |  |  |  |  |  |  |  | 
14 | Cc1ccc(S(=O)(=O)Nc2cccc3c(=O)[nH]cnc23)cc1 | > 100 µM | > 100 µM | > 100 µM | > 100 µM | > 100 µM | > 100 µM | > 100 µM | > 100 µM | > 100 µM | > 100 µM |  |  |  |  |  |  |  |  |  | 
15 | CC(=O)C(C(c1ccccc1)N1CCOCC1)N1CCOCC1 (stereo not given) | > 100 µM | > 100 µM | 36.3 µM | > 100 µM | > 100 µM | > 100 µM | > 100 µM | > 100 µM | > 100 µM | > 100 µM |  |  |  |  |  |  |  |  |  | 
16 | CC1=C2C(O)C(C(C)C(=O)N(C)C)CCC2(C)C=CC1=O (stereo not given) | > 100 µM |  | > 100 µM | > 100 µM | > 100 µM | > 100 µM | > 100 µM | > 100 µM | > 100 µM | > 100 µM |  |  |  |  |  |  |  |  |  | 
